Assay results reported in ChEMBL document CHEMBL5143591, “Human Neuraminidases: Structures and Stereoselective Inhibitors” (J Med Chem, 2022).

How the values were obtained:
[1] = target: T1, Sialidase-4 (Homo sapiens, UniProt Q8WWR8); assay: Inhibition of human NEU4
T1 sequence (Q8WWR8 whole entry): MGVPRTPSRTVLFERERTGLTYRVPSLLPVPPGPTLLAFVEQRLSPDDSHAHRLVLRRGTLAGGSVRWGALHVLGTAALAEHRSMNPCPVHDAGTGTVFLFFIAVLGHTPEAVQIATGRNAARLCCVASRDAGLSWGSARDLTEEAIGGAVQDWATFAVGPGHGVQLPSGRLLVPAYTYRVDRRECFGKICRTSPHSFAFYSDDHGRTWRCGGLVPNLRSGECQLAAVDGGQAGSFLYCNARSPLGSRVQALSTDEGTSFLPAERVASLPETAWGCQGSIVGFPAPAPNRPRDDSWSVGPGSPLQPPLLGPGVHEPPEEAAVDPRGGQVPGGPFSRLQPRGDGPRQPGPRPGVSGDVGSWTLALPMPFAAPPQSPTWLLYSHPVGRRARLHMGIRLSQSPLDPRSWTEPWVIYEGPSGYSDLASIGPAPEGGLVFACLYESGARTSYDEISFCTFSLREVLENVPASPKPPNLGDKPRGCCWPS

[2] = target: T2, Sialidase-3 (Homo sapiens, UniProt Q9UQ49); assay: Inhibition of human NEU3
T2 sequence (Q9UQ49 whole entry): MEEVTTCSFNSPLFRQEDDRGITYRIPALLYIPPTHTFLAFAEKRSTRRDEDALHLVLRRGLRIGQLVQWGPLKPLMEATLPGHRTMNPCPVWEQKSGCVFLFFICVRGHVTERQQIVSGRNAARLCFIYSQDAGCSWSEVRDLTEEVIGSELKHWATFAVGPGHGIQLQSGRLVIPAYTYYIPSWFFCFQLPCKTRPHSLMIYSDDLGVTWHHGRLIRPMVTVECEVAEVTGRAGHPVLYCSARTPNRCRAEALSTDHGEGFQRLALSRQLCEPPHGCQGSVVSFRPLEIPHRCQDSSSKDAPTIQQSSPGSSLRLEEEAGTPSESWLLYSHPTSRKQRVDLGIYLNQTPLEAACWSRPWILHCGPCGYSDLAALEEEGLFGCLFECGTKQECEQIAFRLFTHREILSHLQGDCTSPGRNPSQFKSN

[3] = target: Sialidase-1 (Homo sapiens, UniProt Q99519); assay: Inhibition of human NEU1

IC50 [1]: > 500 µM | IC50 [2]: > 500 µM | IC50 [3]: > 500 µM
Structure (SMILES): CC(=O)N[C@H]1[C@H]([C@H](O)[C@H](O)CO)O[C@](O)(C(=O)O)C[C@@H]1O
